What was measured:
Type I 5α-reductase = target: T1, Type I 5α-reductase (Homo sapiens, UniProt P18405); assay: Inhibition of type I 5α-reductase (14C-testosterone to dihydrotestosterone, transfected COS7 cell lysate); format: biochemical
T1 construct: made in house; host or cells: COS7 cells (ATCC, CRL 1651), transient transfection with pSG5; 100,000×g pellet of the lysate
T1 sequence (P18405 1-259): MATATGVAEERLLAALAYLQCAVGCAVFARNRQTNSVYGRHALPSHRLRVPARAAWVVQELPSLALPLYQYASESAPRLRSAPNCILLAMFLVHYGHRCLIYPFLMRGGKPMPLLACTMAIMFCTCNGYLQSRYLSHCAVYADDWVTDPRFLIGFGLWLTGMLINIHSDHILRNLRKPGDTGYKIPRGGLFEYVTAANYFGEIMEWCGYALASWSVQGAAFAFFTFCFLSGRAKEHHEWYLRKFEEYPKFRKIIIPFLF
Text: (§1) The coding sequences (complementary deoxyribonucleic acids: cDNAs) of 5α-reductase I and of 5α-reductase II were cloned into the eukaryotic expression vector pSG5 (Stratagene). The enzymes were overexpressed after transient transfection of COS7 cells (ATCC, CRL 1651). The 5α-reductase I and 5α-reductase II cDNAs were obtained by reverse transcription and polymerase chain reaction (PCR) using specific primers from human testicle total RNA (marketed by Clontech).
The primers (SEQ ID NOS.: 1 and 2) used to obtain the 5α-reductase I cDNA were:
+strand: 5′[…] 3′,
−strand: 5′[…] 3′.
(§2) The 5α-reductase I cDNA obtained was inserted, by standard genetic engineering techniques, into the BamHI site of pSG5 and the 5α-reductase II cDNA obtained was inserted into the EcoRI site (see Maniatis et al., Molecular Cloning, Cold Spring Harbor, 1989). […]
(§3) The reaction mixtures were then deposited directly on a silica plate (HPTLC, 60F 254, Merck) and subjected to chromatography (solvent=10% diethyl ether, 90% dichloromethane). They were then analyzed by digital autoradiography (Digital Autoradiography, Berthold).
(§4) The inhibition of the activity of the isoenzymes was measured by calculating the percentage of dihydrotestosterone formed from ^14C-testosterone relative to an untreated control.

Type II 5α-reductase = target: T2, Type II 5α-reductase (Homo sapiens, UniProt P31213); assay: Inhibition of type II 5α-reductase (14C-testosterone to dihydrotestosterone, transfected COS7 cell lysate); format: biochemical
T2 construct: made in house; host or cells: COS7 cells (ATCC, CRL 1651), transient transfection with pSG5; 100,000×g pellet of the lysate
T2 sequence (P31213 1-254): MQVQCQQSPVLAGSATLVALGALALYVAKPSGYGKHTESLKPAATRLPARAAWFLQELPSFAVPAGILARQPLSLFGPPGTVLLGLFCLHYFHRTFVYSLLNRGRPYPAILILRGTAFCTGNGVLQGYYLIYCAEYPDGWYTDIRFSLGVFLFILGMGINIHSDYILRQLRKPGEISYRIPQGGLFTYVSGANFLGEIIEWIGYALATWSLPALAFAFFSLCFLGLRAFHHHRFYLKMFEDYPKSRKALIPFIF
Text: as §1
The primers (SEQ ID NOS.: 3 and 4) used to obtain the 5α-reductase II cDNA were:
+strand: 5′GCGATGCAGGTTCAGTG 3′,
−strand: 5′ATTGTGGGAGCTCTGCT 3′.
as §2, §3, §4

IC50 (Type I 5α-reductase; 40 mM pH 6.5 phosphate buffer, 1 nM 14C-testosterone, 5 mM NADPH, 50 minutes at 37° C.): 50 µM
inhibitory effect on the 5α-reductases (type I) (Type I 5α-reductase; statement in words): no inhibitory effect
IC50 (Type II 5α-reductase; 40 mM pH 5.5 citrate buffer, 1 nM 14C-testosterone, 5 mM NADPH, 50 minutes at 37° C.): > 50 µM
inhibitory effect on the 5α-reductases (type II) (Type II 5α-reductase; statement in words): no inhibitory effect
SMILES: COc1cc(OC)c2cc(C(=O)O)[nH]c2c1 [4,6-dimethoxyindole-2-carboxylic acid]

Source: patent US6541507B1, “Indolecarboxylic compounds for inducing/stimulating hair growth and/or retarding hair loss” (Societe L'Oreal S.A., priority 1999, dated 2003)
